Earlier results in US20120156286A1, “COMPOSITIONS AND METHODS FOR INCREASED DELIVERY OF COENZYME Q10” (IMAGENETIX, INC., priority 2010, published 2012).

Conditions: in vivo

COC1=C(OC)C(=O)C(C/C=C(\C)CC/C=C(\C)CC/C=C(\C)CC/C=C(\C)CC/C=C(\C)CC/C=C(\C)CC/C=C(\C)CC/C=C(\C)CC/C=C(\C)CCC=C(C)C)=C(C)C1=O [CoQ10, Coenzyme Q10]
Intestinal absorption: less than 10%
